Like-named read-outs stand apart in the source and are kept apart here.
Tests used:
Assay in all cases: biochemical
Assay type in all cases: biochemical
382 unique human kinases [1] = molecular target: T1, 382 unique human kinases (Homo sapiens, UniProt P22455, V550L); conditions: FGFR4 (V550L), 10 uM; for remaining activity at 10 µM: read-out: % Enzyme Activity (relative to DMSO controls)
T1 construct: purchased Reaction Biology (HotSpot contract assay)

382 unique human kinases [2] = molecular target: T2, 382 unique human kinases (Homo sapiens, UniProt P07949, V804M); conditions: RET (V804M), 10 uM; for remaining activity at 10 µM: read-out: % Enzyme Activity (relative to DMSO controls)
T2 construct: purchased Reaction Biology (HotSpot contract assay)

382 unique human kinases [3] = molecular target: T3, 382 unique human kinases (Homo sapiens, UniProt Q04771, Q207D); conditions: ALK2 (Q207D), compound at 10 uM, duplicate values; for remaining activity at 10 µM: read-out: % Enzyme Activity (relative to DMSO controls)
T3 construct: purchased Reaction Biology (HotSpot contract assay)
T3 sequence (Q04771 21-509 Q207D): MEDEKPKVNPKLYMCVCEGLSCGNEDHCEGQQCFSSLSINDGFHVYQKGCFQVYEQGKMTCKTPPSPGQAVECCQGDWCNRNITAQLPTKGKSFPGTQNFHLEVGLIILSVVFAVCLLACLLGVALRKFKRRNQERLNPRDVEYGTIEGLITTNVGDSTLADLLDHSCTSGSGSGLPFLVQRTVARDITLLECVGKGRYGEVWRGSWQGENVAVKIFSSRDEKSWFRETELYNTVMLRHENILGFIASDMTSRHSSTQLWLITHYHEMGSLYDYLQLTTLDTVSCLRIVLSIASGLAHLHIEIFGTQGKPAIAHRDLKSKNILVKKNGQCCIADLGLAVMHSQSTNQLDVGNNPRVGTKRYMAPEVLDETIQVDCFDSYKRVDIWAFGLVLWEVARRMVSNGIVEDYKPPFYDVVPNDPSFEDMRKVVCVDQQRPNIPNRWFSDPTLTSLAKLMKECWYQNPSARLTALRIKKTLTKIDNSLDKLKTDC

382 unique human kinases [4] = molecular target: T4, 382 unique human kinases (Homo sapiens, UniProt Q8WTQ7); conditions: GRK7, 10 uM; for remaining activity at 10 µM: read-out: % Enzyme Activity (relative to DMSO controls)
T4 construct: purchased Reaction Biology (HotSpot contract assay)
T4 sequence (Q8WTQ7 1-553): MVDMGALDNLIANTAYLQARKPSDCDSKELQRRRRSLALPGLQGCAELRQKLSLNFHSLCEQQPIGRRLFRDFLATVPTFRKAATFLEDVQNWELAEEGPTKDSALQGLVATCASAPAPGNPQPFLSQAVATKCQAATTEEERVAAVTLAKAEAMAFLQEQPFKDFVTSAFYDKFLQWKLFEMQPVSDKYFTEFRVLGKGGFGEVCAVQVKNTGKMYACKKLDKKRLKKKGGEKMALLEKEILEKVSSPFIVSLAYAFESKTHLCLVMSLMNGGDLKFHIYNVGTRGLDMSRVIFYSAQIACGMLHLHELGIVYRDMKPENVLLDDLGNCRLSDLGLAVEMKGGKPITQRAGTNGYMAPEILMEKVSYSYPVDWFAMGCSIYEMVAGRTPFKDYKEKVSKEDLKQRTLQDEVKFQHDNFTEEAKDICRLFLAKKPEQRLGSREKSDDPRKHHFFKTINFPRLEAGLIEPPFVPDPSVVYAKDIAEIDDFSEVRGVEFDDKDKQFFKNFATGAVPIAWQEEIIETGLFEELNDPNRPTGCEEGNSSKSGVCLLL

382 unique human kinases [5] = molecular target: T5, 382 unique human kinases (Homo sapiens, UniProt P54646); conditions: for remaining activity at 10 µM: read-out: % Enzyme Activity (relative to DMSO controls)
T5 construct: purchased Reaction Biology (HotSpot contract assay)

382 unique human kinases [6] = molecular target: T6, 382 unique human kinases (Homo sapiens, UniProt O00418); conditions: kinase EEF2K, compound 10 uM; for remaining activity at 10 µM: read-out: % Enzyme Activity (relative to DMSO controls)
T6 construct: purchased Reaction Biology (HotSpot contract assay)
T6 sequence (O00418 1-725): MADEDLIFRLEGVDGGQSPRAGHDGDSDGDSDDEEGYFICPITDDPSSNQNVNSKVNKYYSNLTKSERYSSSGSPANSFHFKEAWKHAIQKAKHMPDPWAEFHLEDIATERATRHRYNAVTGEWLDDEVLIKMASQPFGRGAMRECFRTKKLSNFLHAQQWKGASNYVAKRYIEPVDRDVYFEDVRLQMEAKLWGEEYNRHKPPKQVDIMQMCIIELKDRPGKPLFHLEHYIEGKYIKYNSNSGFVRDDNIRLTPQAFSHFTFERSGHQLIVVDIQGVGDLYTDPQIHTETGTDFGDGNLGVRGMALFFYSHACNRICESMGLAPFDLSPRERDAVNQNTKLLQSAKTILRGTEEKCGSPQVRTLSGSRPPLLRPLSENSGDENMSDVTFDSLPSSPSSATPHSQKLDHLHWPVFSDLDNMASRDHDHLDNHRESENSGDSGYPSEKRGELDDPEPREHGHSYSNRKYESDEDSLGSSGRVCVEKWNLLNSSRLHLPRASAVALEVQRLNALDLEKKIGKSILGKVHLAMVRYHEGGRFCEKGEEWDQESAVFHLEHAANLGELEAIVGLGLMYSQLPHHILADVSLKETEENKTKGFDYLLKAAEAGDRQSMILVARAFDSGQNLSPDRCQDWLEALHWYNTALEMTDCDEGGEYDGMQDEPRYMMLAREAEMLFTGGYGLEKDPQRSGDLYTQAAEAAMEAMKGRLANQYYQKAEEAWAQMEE

382 unique human kinases [7] = molecular target: T7, 382 unique human kinases (Homo sapiens, UniProt Q00526); conditions: kinase CDK3/cyclin E, compound 10 uM; for remaining activity at 10 µM: read-out: % Enzyme Activity (relative to DMSO controls)
T7 construct: purchased Reaction Biology (HotSpot contract assay)

382 unique human kinases [8] = molecular target: T8, 382 unique human kinases (Homo sapiens, UniProt Q8IW41); conditions: MAPKAPK5/PRAK, compound at 10 uM, duplicate values; for remaining activity at 10 µM: read-out: % Enzyme Activity (relative to DMSO controls)
T8 construct: purchased Reaction Biology (HotSpot contract assay)
T8 sequence (Q8IW41 1-473): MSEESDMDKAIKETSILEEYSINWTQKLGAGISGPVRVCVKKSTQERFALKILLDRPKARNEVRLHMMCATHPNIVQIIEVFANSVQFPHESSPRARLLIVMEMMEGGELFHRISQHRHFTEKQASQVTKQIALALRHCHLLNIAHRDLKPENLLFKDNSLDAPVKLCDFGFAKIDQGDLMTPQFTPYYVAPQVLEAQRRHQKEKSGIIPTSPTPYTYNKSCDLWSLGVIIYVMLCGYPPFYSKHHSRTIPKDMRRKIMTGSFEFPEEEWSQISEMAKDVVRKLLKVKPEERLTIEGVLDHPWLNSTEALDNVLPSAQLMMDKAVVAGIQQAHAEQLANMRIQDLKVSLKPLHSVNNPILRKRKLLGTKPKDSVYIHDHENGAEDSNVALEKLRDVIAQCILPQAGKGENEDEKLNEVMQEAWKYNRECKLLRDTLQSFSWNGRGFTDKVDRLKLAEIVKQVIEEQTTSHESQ

[9] = kinase AMPK(A2/B1/G1), compound 10 uM
[10] = kinase AMPK(A2/B2/G1), compound 10 uM
[11] = kinase AMPK(A2/B2/G2), compound 10 uM

T7 sequence (Q00526 whole entry): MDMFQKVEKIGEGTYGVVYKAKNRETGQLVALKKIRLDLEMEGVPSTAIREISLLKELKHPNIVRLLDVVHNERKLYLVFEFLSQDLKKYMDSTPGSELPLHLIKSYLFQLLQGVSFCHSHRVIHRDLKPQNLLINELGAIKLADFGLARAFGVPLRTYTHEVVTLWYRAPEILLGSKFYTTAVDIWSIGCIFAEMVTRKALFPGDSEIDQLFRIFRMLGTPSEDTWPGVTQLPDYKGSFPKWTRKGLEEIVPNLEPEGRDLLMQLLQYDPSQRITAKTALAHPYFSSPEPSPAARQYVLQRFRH
T2 sequence (P07949 29-1114 V804M): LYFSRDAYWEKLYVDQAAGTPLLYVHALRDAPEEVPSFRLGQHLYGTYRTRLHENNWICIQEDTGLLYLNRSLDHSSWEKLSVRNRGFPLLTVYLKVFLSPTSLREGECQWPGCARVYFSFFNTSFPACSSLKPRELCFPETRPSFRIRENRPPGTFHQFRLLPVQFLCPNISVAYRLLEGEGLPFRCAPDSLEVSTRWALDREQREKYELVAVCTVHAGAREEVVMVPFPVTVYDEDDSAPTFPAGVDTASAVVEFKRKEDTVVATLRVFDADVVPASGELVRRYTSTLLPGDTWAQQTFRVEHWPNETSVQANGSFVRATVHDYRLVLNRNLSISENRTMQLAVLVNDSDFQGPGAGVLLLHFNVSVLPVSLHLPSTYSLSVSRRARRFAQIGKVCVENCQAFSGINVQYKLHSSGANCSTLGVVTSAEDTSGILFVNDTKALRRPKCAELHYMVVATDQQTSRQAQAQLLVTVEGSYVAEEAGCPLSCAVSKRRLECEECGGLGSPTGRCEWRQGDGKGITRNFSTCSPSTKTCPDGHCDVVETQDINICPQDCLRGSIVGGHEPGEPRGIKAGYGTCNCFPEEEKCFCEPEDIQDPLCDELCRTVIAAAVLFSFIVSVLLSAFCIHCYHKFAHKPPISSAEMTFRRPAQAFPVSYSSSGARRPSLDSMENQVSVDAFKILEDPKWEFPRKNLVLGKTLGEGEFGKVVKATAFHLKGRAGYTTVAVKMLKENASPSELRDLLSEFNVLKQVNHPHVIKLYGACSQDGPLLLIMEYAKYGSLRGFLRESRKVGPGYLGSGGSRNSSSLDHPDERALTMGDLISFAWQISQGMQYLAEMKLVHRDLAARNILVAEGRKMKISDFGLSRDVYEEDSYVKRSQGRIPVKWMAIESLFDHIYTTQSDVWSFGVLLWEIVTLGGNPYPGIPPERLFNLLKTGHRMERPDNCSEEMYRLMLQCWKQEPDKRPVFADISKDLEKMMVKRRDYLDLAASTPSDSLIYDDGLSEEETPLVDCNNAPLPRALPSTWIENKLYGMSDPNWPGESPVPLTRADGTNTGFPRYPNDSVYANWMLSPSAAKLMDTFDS
T1 sequence (P22455 22-802 V550L): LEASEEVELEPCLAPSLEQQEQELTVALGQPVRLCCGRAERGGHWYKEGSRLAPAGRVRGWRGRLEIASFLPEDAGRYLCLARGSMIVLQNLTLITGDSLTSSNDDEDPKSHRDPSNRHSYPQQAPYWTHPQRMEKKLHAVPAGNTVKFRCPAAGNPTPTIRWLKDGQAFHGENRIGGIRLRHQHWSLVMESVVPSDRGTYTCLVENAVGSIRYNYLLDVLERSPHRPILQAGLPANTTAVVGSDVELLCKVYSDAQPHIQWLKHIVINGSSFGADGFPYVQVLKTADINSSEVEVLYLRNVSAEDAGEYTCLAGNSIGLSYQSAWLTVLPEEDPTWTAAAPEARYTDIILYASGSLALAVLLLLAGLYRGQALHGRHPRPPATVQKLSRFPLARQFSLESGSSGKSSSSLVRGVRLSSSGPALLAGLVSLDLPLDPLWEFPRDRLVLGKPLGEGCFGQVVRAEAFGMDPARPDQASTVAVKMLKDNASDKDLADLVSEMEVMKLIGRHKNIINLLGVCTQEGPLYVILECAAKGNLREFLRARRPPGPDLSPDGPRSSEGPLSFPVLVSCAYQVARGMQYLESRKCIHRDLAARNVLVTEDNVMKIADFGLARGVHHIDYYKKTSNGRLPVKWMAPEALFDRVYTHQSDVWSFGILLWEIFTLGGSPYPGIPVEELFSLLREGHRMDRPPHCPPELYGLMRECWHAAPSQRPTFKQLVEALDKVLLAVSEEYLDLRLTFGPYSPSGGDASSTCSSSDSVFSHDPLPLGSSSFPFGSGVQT
T5 sequence (P54646 whole entry): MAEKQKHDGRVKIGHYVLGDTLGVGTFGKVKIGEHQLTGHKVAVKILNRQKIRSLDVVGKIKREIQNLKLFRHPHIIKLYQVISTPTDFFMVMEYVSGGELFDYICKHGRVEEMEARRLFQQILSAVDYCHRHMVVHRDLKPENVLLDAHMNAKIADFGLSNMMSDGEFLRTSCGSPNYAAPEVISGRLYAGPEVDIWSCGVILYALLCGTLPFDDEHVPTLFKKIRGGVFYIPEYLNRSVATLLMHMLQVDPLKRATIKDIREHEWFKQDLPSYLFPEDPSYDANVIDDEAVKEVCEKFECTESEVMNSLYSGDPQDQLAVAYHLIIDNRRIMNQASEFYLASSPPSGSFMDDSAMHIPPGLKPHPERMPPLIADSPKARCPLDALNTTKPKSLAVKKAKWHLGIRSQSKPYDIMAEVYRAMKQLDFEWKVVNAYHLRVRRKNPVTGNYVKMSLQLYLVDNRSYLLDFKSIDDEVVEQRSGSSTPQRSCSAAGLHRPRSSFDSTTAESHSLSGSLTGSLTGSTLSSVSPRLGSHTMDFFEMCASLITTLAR

SMILES | remaining activity at 10 µM (382 unique human kinases [1]) [%] | remaining activity at 10 µM (382 unique human kinases [2]) [%] | remaining activity at 10 µM (382 unique human kinases [3]) [%] | remaining activity at 10 µM (382 unique human kinases [4]) [%] | remaining activity at 10 µM (382 unique human kinases [5]; AMPK(A2/B2/G3), 10 uM) [%] | remaining activity at 10 µM (382 unique human kinases [5]; [9]) [%] | remaining activity at 10 µM (382 unique human kinases [5]; [10]) [%] | remaining activity at 10 µM (382 unique human kinases [5]; [11]) [%] | remaining activity at 10 µM (382 unique human kinases [6]) [%] | remaining activity at 10 µM (382 unique human kinases [7]) [%] | remaining activity at 10 µM (382 unique human kinases [8]) [%] | also measured
CC(C)c1cc(-c2n[nH]c(=O)n2-c2ccc3c(ccn3C)c2)c(O)cc1O [Ganetespib (STA9090)] | 76.1 | 81 | 154 | 75.4 | 65.8 | 80.4 | 82.1 | 84.6 | 89.2 | 82.2 | 102 | 
CCNC(=O)c1noc(-c2cc(C(C)C)c(O)cc2O)c1-c1ccc(CN2CCOCC2)cc1 [Luminespib (AUY-922)] | 101 | 98.7 | 106 | 96.7 | 104 | 103 | 94.2 | 97.4 | 105 | 103 | 104 | % Enzyme Activity (relative to DMSO controls) (382 unique human kinases [1]): 101.11%; % Enzyme Activity (relative to DMSO controls) (382 unique human kinases [2]): 97.95%; % Enzyme Activity (relative to DMSO controls) (382 unique human kinases [3]): 101.59%; % Enzyme Activity (relative to DMSO controls) (382 unique human kinases [4]): 95.66%; % Enzyme Activity (relative to DMSO controls) (382 unique human kinases [5]; AMPK(A2/B2/G3), 10 uM): 103.09%; % Enzyme Activity (relative to DMSO controls) (382 unique human kinases [5]; [9]): 102.86%; % Enzyme Activity (relative to DMSO controls) (382 unique human kinases [5]; [10]): 94.15%; % Enzyme Activity (relative to DMSO controls) (382 unique human kinases [5]; [11]): 96.15%; % Enzyme Activity (relative to DMSO controls) (382 unique human kinases [6]): 102.88%; % Enzyme Activity (relative to DMSO controls) (382 unique human kinases [7]): 102.34%; % Enzyme Activity (relative to DMSO controls) (382 unique human kinases [8]): 101.76%

From paper PMC8550792, “Evolution of kinase polypharmacology across HSP90 drug discovery” (Cell Chemical Biology, 2021)
